In paper PMC8474119, “Discovery and SAR Evolution of Pyrazole Azabicyclo[3.2.1]octane Sulfonamides as a Novel Class of Non-Covalent N-Acylethanolamine-Hydrolyzing Acid Amidase (NAAA) Inhibitors for Oral Administration” (Journal of Medicinal Chemistry, 2021):

Columns and labels:
[1] = Mouse pharmacokinetics, i.v. and p.o.; type: in vivo; conditions: plasma, male C57BL/6 mice; for AUC at 4 h / Cmax at 4 h / Tmax at 4 h / Vd at 4 h / clearance at 4 h / bioavailability at 4 h: iv; for AUC at 4 h / Cmax at 4 h / Tmax at 4 h / Vd at 4 h / clearance at 4 h: i.v. 3 mg/kg; for AUC at 8 h / Cmax at 8 h / Tmax at 8 h: po, p.o. 10 mg/kg
Experimental: Male C57BL/6 mice, weighing 22–24 g, were used (Charles River). All procedures were performed in accordance with the Ethical Guidelines of European Communities Council (Directive 2010/63/EU of 22 September 2010) and accepted by the Italian Ministry of Health. All efforts were made to minimize animal suffering and to use the minimal number of animals required to produce reliable results, according to the “3Rs concept”. Animals were group-housed in ventilated cages and had free access to food and water. They were maintained under a 12 h light/dark cycle (lights on at 8:00 am) at controlled temperature (21 ± 1 °C) and relative humidity (55 ± 10%).
Compound 39 or 50 was administered p.o. and i.v. to C57BL/6 male mice at 10 and 3 mg/kg. The vehicle used was PEG400/Tween 80/saline solution at 10/10/80% in volume, respectively. Three animals per each time point were treated. Blood samples at 0, 15, 30, 60, 120, 240, and 480 min after administration were collected for the p.o. arm. Blood samples at 0, 5, 15, 30, 60, 120, and 240 min after administration were collected for the i.v. arm. Plasma was separated from blood by centrifugation for 15 min at 1500 rpm a 4 °C, transferred to Eppendorf tubes, and frozen (−80 °C). Control animals treated with vehicle only were also included in the experimental protocol.
Plasma samples were centrifuged at 21,100g for 15 min at 4 °C. An aliquot of each sample was extracted (1:3) with cold CH3CN containing 200 nM of an appropriate internal standard as a close analogue of the parent compound (for compound 39: (1R,3r,5S)-3-(4-phenylphenoxy)-8-((3,5-dimethyl-1H-pyrazol-4-yl)sulfonyl)-8 azabicyclo[3.2.1]octane; for compound 50: (1R,3r,5S)-3-((5-methylpyrazin-2-yl)oxy)-8-((3,5-dimethyl-1H-pyrazol-4-yl)sulfonyl)-8-azabicyclo[3.2.1]octane). A calibration curve was obtained in blank mouse plasma over a 1 nM to 10 μM range. Three quality controls were prepared by spiking the parent compound in blank mouse plasma to 20, 200, and 2.000 nM, as final concentrations. The calibrators and quality controls were extracted (1:3) with the same extraction solution as the plasma sample. The plasma samples, the calibrators, and quality controls were centrifuged at 3.270g for 15 min at 4 °C. The supernatants were further diluted (1:1) with H2O + 0.1% HCOOH, and analyzed by LC–MS/MS on a Waters ACQUITY UPLC-MS TQD system consisting of a Triple Quadrupole Detector (TQD) Mass Spectrometer equipped with an Electrospray Ionization interface and a Photodiode Array eλ Detector from Waters Inc. (Milford, MA, USA). Electrospray ionization was applied in positive mode. Compound-dependent parameters such as MRM transitions and collision energy were developed for the parent compound and the internal standard. The analyses were run on an ACQUITY UPLC BEH C18 (50 × 2.1 mm ID, particle size 1.7 μm) with a VanGuard BEH C18 precolumn (5 × 2.1 mm ID, particle size 1.7 μm) at 40 °C. The mobile phase was H2O + 0.1% HCOOH (A) and CH3CN + 0.1% HCOOH (B) at a flow rate = 0.5 mL/min. A linear gradient was applied starting at 10% B with an initial hold for 0.2 min, then 10–100% B in 2 min. All samples (plasma samples, calibrators, and quality controls) were quantified by the MRM peak area response factor in order to determine the levels of the parent compound in plasma. The concentrations versus time were plotted and the profiles were fitted using PK Solutions Excel Application (Summit Research Service, USA) in order to determine the pharmacokinetic parameters.

[2] = Liver microsomal stability assay (NADPH), human; type: in vitro ADME; conditions: for % compound remaining at last time-point, LM_NADPH: human liver microsomes, 4.6 μM, 60 min; for half-life at 4.6 μM: male, pH 7.5, human liver microsomes, read-out: LM_NADPH t1/2
Experimental: Pooled CD1 mouse (M1000, male), IGS Sprague-Dawley rat (R1000, male), and human (H1000, male) liver microsomes were purchased from SEKISUI XenoTech. 10 mM DMSO stock solution of the test compound (39 or 50) was preincubated at 37 °C for 15 min with mouse, rat, or human liver microsomes in 0.1 M Tris-HCl buffer (pH 7.5) with 10% DMSO. The final concentration was 4.6 μM. After preincubation, the cofactor (NADPH) was added to the incubation mixture, and the incubation was continued at 37 °C for 1 h. At each time point (0, 5, 15, 30, and 60 min), 30 μL of incubation mixture was diluted with 200 μL cold CH3CN spiked with 200 nM of an appropriate internal standard, followed by centrifugation at 3.270g for 15 min. The supernatant was further diluted with H2O (1:1) for analysis. A reference incubation mixture of each specie (microsomes without cofactors) was prepared for each test compound and analyzed at t = 0 and 60 min in order to verify the compound stability in the matrix. The two time points were diluted as for the time points of the incubation mixture above. The supernatants were analyzed by LC–MS/MS on a Waters ACQUITY UPLC-MS TQD system consisting of a triple quadrupole detector (TQD) mass spectrometer equipped with an electrospray ionization interface and a photodiode array eλ detector (PDA) from Waters Inc. (Milford, MA, USA). Electrospray ionization was applied in positive mode. Compound-dependent parameters as MRM transitions and collision energy were developed for each compound. The analyses were run on an ACQUITY UPLC BEH C18 (50 × 2.1 mm ID, particle size 1.7 μm) with a VanGuard BEH C18 precolumn (5 × 2.1 mm ID, particle size 1.7 μm) at 40 °C, using H2O + 0.1% HCOOH (A) and CH3CN + 0.1% HCOOH (B) as the mobile phase. The percentage of test compound remaining at each time point relative to t = 0 was calculated by the response factor on the basis of the internal standard peak area. The percentage of test compound versus time was plotted and fitted by GraphPad Prism (GraphPad Software, Version 5 for Windows, CA, USA, www.graphpad.com) to estimate the compound’s half-life (t1/2), which was reported as mean value along with the standard deviation (n = 3).

[3] = p.o. 10 mg/kg vs i.v. 3 mg/kg, read-out: F (oral bioavailability)

CCCCc1ccc(O[C@H]2C[C@H]3CC[C@@H](C2)N3S(=O)(=O)c2c(C)n[nH]c2C)cc1 [Compound 39, (1R,3r,5S)-3-(4-Butylphenoxy)-8-((3,5-dimethyl-1H-pyrazol-4-yl)sulfonyl)-8-azabicyclo[3.2.1]octane]
AUC at 4 h [1]: 347 ng·h/mL
Cmax at 4 h [1]: 702 ng/mL
Tmax at 4 h [1]: 5 min
Vd at 4 h [1]: 4.45 L/kg
clearance at 4 h [1]: 144 mL/min/kg
bioavailability at 4 h [1, 3]: 30%
AUC at 8 h [1]: 346 ng·h/mL
Cmax at 8 h [1]: 297 ng/mL
Tmax at 8 h [1]: 30 min
% compound remaining at last time-point, LM_NADPH [2]: 83%
half-life at 4.6 μM [2]: > 60 min

CCOCc1cnc(O[C@H]2C[C@H]3CC[C@@H](C2)N3S(=O)(=O)c2c(C)n[nH]c2C)cn1 [Compound 50, (1R,3r,5S)-8-((3,5-Dimethyl-1H-pyrazol-4-yl)sulfonyl)-3-((5-(ethoxymethyl)pyrazin-2-yl)oxy)-8-azabicyclo[3.2.1]octane]
AUC at 4 h [1]: 3370 ng·h/mL
Cmax at 4 h [1]: 5240 ng/mL
Tmax at 4 h [1]: 5 min
Vd at 4 h [1]: 0.53 L/kg
clearance at 4 h [1]: 13 mL/min/kg
bioavailability at 4 h [1, 3]: 60%
bioavailability ([1]; oral, p.o. 10 mg/kg vs i.v. 3 mg/kg, read-out: F (oral bioavailability)): ~60%
AUC at 8 h [1]: 6790 ng·h/mL
Cmax at 8 h [1]: 6870 ng/mL
Tmax at 8 h [1]: 15 min
% compound remaining at last time-point, LM_NADPH [2]: 88%
half-life at 4.6 μM [2]: > 60 min
